Where “and” joins values, the source holds several entries; their conditions need not be identical. Identical values can stand only once.
B1: Positive control: 8 mg/mL egg white albumin solution, positive control of the anaphylaxis experiment (protein, UniProt P01012 2-386, looked up)
Ovalbumin: GSIGAASMEFCFDVFKELKVHHANENIFYCPIAIMSALAMVYLGAKDSTRTQINKVVRFDKLPGFGDSIEAQCGTSVNVHSSLRDILNQITKPNDVYSFSLASRLYAEERYPILPEYLQCVKELYRGGLEPINFQTAADQARELINSWVESQTNGIIRNVLQPSSVDSQTAMVLVNAIVFKGLWEKAFKDEDTQAMPFRVTEQESKPVQMMYQIGLFRVASMASEKMKILELPFASGTMSMLVLLPDEVSGLEQLESIINFEKLTEWTSSNVMEERKIKVYLPRMKMEEKYNLTSVLMAMGITDVFSSSANLSGISSAESLKISQAVHAAHAEINEAGREVVGSAEAGVDAASVSEEFRADHPFLFCIKHIATNAVLFFGRCVSP

Assays:
human plasma protein = experiment: Human plasma protein binding rate by equilibrium dialysis; settings: positive, 5 μM
guinea pigs = experiment: Active systemic anaphylaxis experiment in guinea pigs; settings: first challenge
Method: The administration doses were 20 m/kg and 40 mg/kg and were about 1.5 and 3 times of the highest clinical intended dose. The day of the first administration was defined as day 1 of the experiment. Sensitization was performed 1 time every other day. 3 consecutive sensitizations were performed (i.e., sensitization on days 1, 3, and 5 of the experiment). On day 14 and day 21 after the last sensitization (i.e., on day 19 and day 26 of the experiment), the guinea pigs were challenged by intravenous injection at 2 times the dose of the sensitization dose, and the systemic reaction and death after the challenge were observed.

[1] = positive control group (8 mg/mL, 0.5 mL/guinea pig sensitization, i.v.)

Molecule | Binding rate (%) (human plasma protein; human plasma) | Administration side (peak area ratio), Mean (human plasma protein) | Administration side (peak area ratio), single replicates N = 1-3 (human plasma protein) | Receiving side (peak area ratio), Mean (human plasma protein) | Receiving side (peak area ratio), single replicates N = 1-3 (human plasma protein) | T0 h (peak area ratio), Mean (human plasma protein) | T0 h (peak area ratio), single replicates N = 1-3 (human plasma protein) | T5 h (peak area ratio), Mean (human plasma protein) | T5 h (peak area ratio), single replicates N = 1-3 (human plasma protein) | Stability (%) (human plasma protein; T5 h vs T0 h) | Time to death of all guinea pigs after challenge administration (guinea pigs; positive control group) | Anaphylaxis Degree of occurrence (guinea pigs; [1]) | Anaphylaxis Incidence (%) (guinea pigs; [1]) | Number of symptoms of anaphylaxis and occurrence proportion: 0 (guinea pigs; [1]) | Number of symptoms of anaphylaxis and occurrence proportion: 1-4 (guinea pigs; [1]) | Number of symptoms of anaphylaxis and occurrence proportion: 5-10 (guinea pigs; [1]) | Number of symptoms of anaphylaxis and occurrence proportion: 11-19 (guinea pigs; [1]) | Number of symptoms of anaphylaxis and occurrence proportion: 20 (guinea pigs; [1])
CC(C)NCC(O)COc1cccc2ccccc12 (stereo not drawn) [Propranolol] | 87.27% | 3.774 | 3.835 and 3.690 and 3.798 | 0.480 | 0.486 and 0.480 and 0.475 | 5.286 | 5.491 and 5.043 and 5.325 | 4.896 | 4.909 and 4.831 and 4.947 | 92.61% | – | – | – | – | – | – | – | –
B1 | – | – | – | – | – | – | – | – | – | – | ≤ 7 min | extremely positive | 100% | 0 | 0 | 0 | 0 | 6/6
